Laboratory results reported in PMC9230623, “Design, Synthesis, In Vitro Biological Activity Evaluation and Stabilized Nanostructured Lipid Carrier Formulation of Newly Synthesized Schiff Bases-Based TMP Moieties” (Pharmaceuticals, 2022).

Experiments:
[1] = test system: four human cancer cell lines; parameters: method as in PMID 27149641; conditions: four human cancer cell lines ref 21; read-out: IC50 antiproliferative activity; cited from earlier work
[2] = test system: MDA-MB-231 breast cancer cell line; experiment: Cytotoxic assay against MDA-MB-231 breast cancer cell line; assay type: cell-based; conditions: Homo sapiens, MDA-MB-231; mean of three independent replicates ± SE; read-out: IC50 Value (μM) MDA-MB-231
Experimental: The newly prepared Schiff bases 2–5g were screened for their in vitro cytotoxic activity against the MDA-MB-231 breast cancer cell line taking CA-4 as a reference drug. […] In addition, further structure extension to give N-aryl hydrazinyl molecules 4a–5g produced compounds with considerable cytotoxic activity, which may give an indication that the aryl ring is important for cytotoxic activity. […]
Cytotoxic activity of the prepared schiff bases against MDA-MB-231 breast cell Line was determined according previously reported methods. (See Supplementary Materials—Appendix SB).

[3] = test system: normal breast cell line MCF-10A; experiment: Cytotoxic assay against normal breast cell line MCF-10A; assay type: cell-based; conditions: Homo sapiens, mean of three independent replicates ± SE, read-out: IC50 Value (μM) MCF-10A
[4] = test system: MDA-MB-231 cells; experiment: Annexin V FITC/PI staining apoptosis assay; assay type: cell-based, human
Experimental: A double staining examination of annexin V FITC/propidium iodide (PI) was used to evaluate compound 4h’s influence on apoptosis and estimate the percentage of the total, early, and late apoptosis in MDA-MB-231 cells. […] Furthermore, the proportion of early and late apoptotic cells rose by 23.12- and 63.67-fold, respectively, as compared to the untreated control cells.
(§1) See Supplementary Materials—Appendix SB.

[5] = test system: MDA-MB-231 cells; experiment: Cell cycle analysis (FACS, DNA flow cytometry); assay type: cell-based, human
From the text: For the purpose of studying the influence of these hydrazides on the cell cycle progression of MDA-MB-231 human malignant cell lines. A FACS analysis was used to determine the DNA proportion of cell nuclei.
as §1

[6] = test system: β-tubulin; experiment: Tubulin polymerization inhibitory activity, ELISA assay for β-tubulin; assay type: cell-based, human; conditions: at IC50 (1.27 μM), compared with no treatment control
Experimental: In addition, compound 4h was subjected to in vitro tubulin polymerization inhibitory activity assay using ELISA assay for β-tubulin.
(§2) Compound 4h was evaluated for their Tubulin inhibitory activity according to manufacturer’s instructions.

[7] = test system: mitochondrial membrane potential of MDA-MB-231 cells; experiment: Mitochondrial membrane potential by flow cytometry; assay type: cell-based, human
Experimental: Most of the known anticancer molecules induce apoptotic cascade via activation of the intrinsic pathway via release of cytochrome-c after depolarization of mitochondrial membrane. The potential status of the mitochondrial membrane is determined by the electrochemical gradient (Δψ).
as §1

[8] = test system: tubulin; experiment: Tubulin polymerization inhibition by immunofluorescence analysis (confocal microscope); assay type: cell-based, human; conditions: at its IC50 concentration, MDA-MB-231, compared with untreated cells
Experimental: Several investigations have shown that TMP-containing compounds such as Col and CA-4 interact with tubulin at the colchicine binding site, inhibiting microtubule assembly. The effects of representative Schiff bases on the inhibition of tubulin assembly were evaluated. […] Tubulin polymerization inhibitory activity against the MDA-MB-231 cell line was investigated by immunofluorescence analysis using a confocal microscope.
as §2

[9] = test system: tubulin; parameters: method as in PMID 32325332; conditions: at its IC50 dose level ref 22; cited from earlier work
[10] = test system: MCF-7 breast cancer cell line; conditions: MCF-7 ref 26; cited from earlier work
[11] = compared to untreated control cells

## COc1ccc2c(c1)NC(/C=C(\C)C(=O)c1cc(OC)c(OC)c(OC)c1)C2 (stereo not shown) [V]
[1]
  IC50: 0.003 to 0.009 µM

## COc1cc(/C=C(\NC(=O)c2cc(OC)c(OC)c(OC)c2)C(=O)N/N=C/c2cc(Br)c(O)c(Br)c2)cc(OC)c1OC [Compound 4h, N-((Z)-3-((E)-2-(3,5-Dibromo-4-hydroxybenzylidene)hydrazinyl)-3-oxo-1-(3,4,5-trimethoxyphenyl)prop-1-en-2-yl)-3,4,5-trimethoxybenzamide]
[2]
  IC50: 1.27 ± 0.18 µM
[3]
  IC50: 30.8 ± 2.32 µM
[4]; 24 h, no treatment control 1.63%
  overall apoptosis: 31.27%
[4]; [11]
  rise of early apoptotic cells: 23.12 fold
  rise of late apoptotic cells: 63.67 fold
[5]; IC50 concentration, 24 h
  %Pre-G1: 31.27%
[5]; IC50 concentration, 24 h, untreated control 8.22%
  %DIP G2/M: 38.65%
[5]; versus control MDA-MB-231 cells
  cell cycle arrest at G2/M phase relative to control cells: fivefold
[5]; versus negative control cells
  increase in percentage of pre-G1 phase relative to negative control: ~19 fold
[6]
  percent inhibition of tubulin polymerization: 78.14%
[7]; IC50 concentration, 24 h, in comparison with untreated cells
  reduction in the level of MMPψ: 65.23%
[7]; compared to negative control cells
  decrease in the level of MMP: 3 fold
[8]
  tubulin polymerization inhibition activity (immunofluorescence): good tubulin polymerization inhibition activity

## COc1cc(C(=O)NNC(=O)c2ccc(NC(=O)CCl)cc2)cc(OC)c1OC [VI]
[9]
  in vitro tubulin polymerization inhibition activity: 83.1%

## COc1cc(C(=O)N/N=C/c2cc3ccccc3[nH]2)cc(OC)c1OC [VII]
[10]
  IC50: 0.87 µM
